Measurements reported in PubChem BioAssay AID2060603 (Molecular Pharmacology Branch, DTP, NCI, 2025).
“And” between values parts separate entries of the source, which are not always exact repeats. Equal values may be shown once.

Test system: 422866-222-R5-J1-PDC spheroid viability
Test: Anticancer human tumor 422866-222-R5-J1-PDC patient-derived pancreatic adenocarcinoma cell line growth inhibition [CLK]
Conditions: spheroids with HUVEC and MSC; for viability, T/C: stronger effect = lower value
How it was run: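 Patient-derived tumor cells grown as complex spheroids with HUVEC endothelial cells and mesenchymal stem cells, treated with drug combinations. Concentrations descend in half-log steps from near clinical Cmax, or from 10 microM if Cmax unknown.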

[1] = curve of first compound, second compound 0.0316 µM
[2] = curve of first compound, second compound 0.1 µM
[3] = curve of first compound, second compound 0.316 µM
[4] = curve of first compound, second compound 1 µM
[5] = curve of first compound, second compound 3.16 µM
[6] = curve of first compound, second compound 10 µM
[7] = second compound 0.0316 µM, first compound 0.0316 µM
[8] = second compound 0.0316 µM, first compound 0.1 µM
[9] = second compound 0.0316 µM, first compound 0.316 µM
[10] = second compound 0.0316 µM, first compound 1 µM
[11] = second compound 0.0316 µM, first compound 3.16 µM
[12] = second compound 0.0316 µM, first compound 10 µM
[13] = second compound 0.1 µM, first compound 0.0316 µM
[14] = second compound 0.1 µM, first compound 0.1 µM
[15] = second compound 0.1 µM, first compound 0.316 µM
[16] = second compound 0.1 µM, first compound 1 µM
[17] = second compound 0.1 µM, first compound 3.16 µM
[18] = second compound 0.1 µM, first compound 10 µM
[19] = second compound 0.316 µM, first compound 0.0316 µM
[20] = second compound 0.316 µM, first compound 0.1 µM
[21] = second compound 0.316 µM, first compound 0.316 µM
[22] = second compound 0.316 µM, first compound 1 µM
[23] = second compound 0.316 µM, first compound 3.16 µM
[24] = second compound 0.316 µM, first compound 10 µM
[25] = second compound 1 µM, first compound 0.0316 µM
[26] = second compound 1 µM, first compound 0.1 µM
[27] = second compound 1 µM, first compound 0.316 µM
[28] = second compound 1 µM, first compound 1 µM
[29] = second compound 1 µM, first compound 3.16 µM
[30] = second compound 1 µM, first compound 10 µM
[31] = second compound 3.16 µM, first compound 0.0316 µM
[32] = second compound 3.16 µM, first compound 0.1 µM
[33] = second compound 3.16 µM, first compound 0.316 µM
[34] = second compound 3.16 µM, first compound 1 µM
[35] = second compound 3.16 µM, first compound 3.16 µM
[36] = second compound 3.16 µM, first compound 10 µM
[37] = second compound 10 µM, first compound 0.0316 µM
[38] = second compound 10 µM, first compound 0.1 µM
[39] = second compound 10 µM, first compound 0.316 µM
[40] = second compound 10 µM, first compound 1 µM
[41] = second compound 10 µM, first compound 3.16 µM
[42] = second compound 10 µM, first compound 10 µM
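Also: spheroids exposed to agents for seven days before readout.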

For `C=CC(=O)N1CCN(c2nc(=O)n(-c3c(C)ccnc3C(C)C)c3nc(-c4c(O)cccc4F)c(F)cc23)C(C)C1` (stereo not drawn) + CNC(=O)c1ccc(Nc2nc(OC3CCCC3)c3c(-c4ccc5nc(C)oc5c4)c[nH]c3n2)c(OC)c1, the IC50 [1] was under 31.6 nM, the IC50 [2] was under 31.6 nM and the IC50 [3] was under 31.6 nM. For the same compound, the IC50 [4] was under 31.6 nM, the IC50 [5] was under 31.6 nM and the IC50 [6] was under 31.6 nM. It also gave a viability, T/C [7] of 36.8%, a viability, T/C [8] of 35.4% and a viability, T/C [9] of 29.5%. It also gave a viability, T/C [10] of 27.4%, a viability, T/C [11] of 23.5% and a viability, T/C [12] of 24.6%. The viability, T/C [13] was 34.6%, the viability, T/C [14] was 33.2% and the viability, T/C [15] was 27.6%. The viability, T/C [16] was 28.7%, the viability, T/C [17] was 26% and the viability, T/C [18] was 26.1%. It also gave a viability, T/C [19] of 34.9%, a viability, T/C [20] of 30.8% and a viability, T/C [21] of 27.1%. It also gave a viability, T/C [22] of 25.6%, a viability, T/C [23] of 24.8% and a viability, T/C [24] of 26.2%. For the same compound, the viability, T/C [25] was 35.7%, the viability, T/C [26] was 25.7% and the viability, T/C [27] was 28.8%. The viability, T/C [28] was 25.3%, the viability, T/C [29] was 31.9% and the viability, T/C [30] was 27.7%. For the same compound, the viability, T/C [31] was 32.3%, the viability, T/C [32] was 29.9% and the viability, T/C [33] was 28.3%. It also gave a viability, T/C [34] of 24.4%, a viability, T/C [35] of 27.6% and a viability, T/C [36] of 30.9%. For the same compound, the viability, T/C [37] was 32%, the viability, T/C [38] was 28.9% and the viability, T/C [39] was 27.8%. For the same compound, the viability, T/C [40] was 27.4%, the viability, T/C [41] was 29.9% and the viability, T/C [42] was 26.4%.
With `CC1(C)CCC(CN2CCN(c3ccc(C(=O)NS(=O)(=O)c4ccc(NCC5CCOCC5)c([N+](=O)[O-])c4)c(Oc4cnc5[nH]ccc5c4)c3)CC2)=C(c2ccc(Cl)cc2)C1` the viability, T/C (compound 0.0316 µM) was 89.7% and 94.5%, the viability, T/C (compound 0.1 µM) was 95.6% and 97.1% and the viability, T/C (compound 0.316 µM) was 103% and 77.2%. For the same compound, the viability, T/C (compound 1 µM) was 105% and 92.1%, the viability, T/C (compound 3.16 µM) was 99.1% and 120% and the viability, T/C (compound 10 µM) was 69.8% and 69%. It also gave an IC50 (curve of compound) of over 10000 nM.
`C=CC(=O)N1CCN(c2nc(=O)n(-c3c(C)ccnc3C(C)C)c3nc(-c4c(O)cccc4F)c(F)cc23)C(C)C1` (stereo not drawn) + CN1CCN(c2cc(C(=O)Nc3cc4cc(-c5cnn(C)c5)ccc4cn3)ccn2)CC1 showed an IC50 [1] of under 31.6 nM, an IC50 [2] of under 31.6 nM and an IC50 [3] of under 31.6 nM. It also gave an IC50 [4] of under 31.6 nM, an IC50 [5] of under 31.6 nM and an IC50 [6] of under 31.6 nM. For the same compound, the viability, T/C [7] was 44.6%, the viability, T/C [8] was 30.4% and the viability, T/C [9] was 40.1%. The viability, T/C [10] was 30.5%, the viability, T/C [11] was 29% and the viability, T/C [12] was 35.3%. It also gave a viability, T/C [13] of 46.9%, a viability, T/C [14] of 38.4% and a viability, T/C [15] of 36.6%. For the same compound, the viability, T/C [16] was 38.7%, the viability, T/C [17] was 35.1% and the viability, T/C [18] was 38.5%. The viability, T/C [19] was 42.7%, the viability, T/C [20] was 35.4% and the viability, T/C [21] was 29.9%. For the same compound, the viability, T/C [22] was 32.2%, the viability, T/C [23] was 33.9% and the viability, T/C [24] was 28.5%. The viability, T/C [25] was 20.9%, the viability, T/C [26] was 21.5% and the viability, T/C [27] was 21.2%. It also gave a viability, T/C [28] of 20.8%, a viability, T/C [29] of 17.6% and a viability, T/C [30] of 8.28%. For the same compound, the viability, T/C [31] was 4.94%, the viability, T/C [32] was 5.81% and the viability, T/C [33] was 5.39%. For the same compound, the viability, T/C [34] was 6.54%, the viability, T/C [35] was 6.25% and the viability, T/C [36] was 7.04%. It also gave a viability, T/C [37] of 0.98%, a viability, T/C [38] of 0.81% and a viability, T/C [39] of 0.76%. It also gave a viability, T/C [40] of 0.79%, a viability, T/C [41] of 0.84% and a viability, T/C [42] of 2.58%.
`CNC(=O)c1ccc(Nc2nc(OC3CCCC3)c3c(-c4ccc5nc(C)oc5c4)c[nH]c3n2)c(OC)c1` was tested, and the viability, T/C (compound 0.0316 µM) was 99.4% [middle of 12 runs], the viability, T/C (compound 0.1 µM) was 93.4% [middle of 12 runs] and the viability, T/C (compound 0.316 µM) was 70.8% [middle of 12 runs]. The viability, T/C (compound 1 µM) was 68.3% [middle of 12 runs], the viability, T/C (compound 3.16 µM) was 74.5% [middle of 12 runs] and the IC50 (compound alone, run of 08/15/2023) was over 10000 nM.
For `COc1c(OCCCN2CCOCC2)ccc2c3n(c(=NC(=O)c4cnc(N)nc4)nc12)CCN3` + CNC(=O)c1ccc(Nc2nc(OC3CCCC3)c3c(-c4ccc5nc(C)oc5c4)c[nH]c3n2)c(OC)c1, the IC50 [1] was 11.9 nM, the IC50 [2] was 16.8 nM and the IC50 [3] was 11.8 nM. For the same compound, the IC50 [4] was under 3.16 nM, the IC50 [5] was 8.5 nM and the IC50 [6] was under 3.16 nM. For the same compound, the viability, T/C (second compound 0.0316 µM, first compound 0.00316 µM) was 83.3%, the viability, T/C (second compound 0.0316 µM, first compound 0.01 µM) was 51.5% and the viability, T/C [7] was 39.9%. The viability, T/C [8] was 26.8%, the viability, T/C [9] was 28.4% and the viability, T/C [10] was 30.3%. For the same compound, the viability, T/C (second compound 0.1 µM, first compound 0.00316 µM) was 72.2%, the viability, T/C (second compound 0.1 µM, first compound 0.01 µM) was 60% and the viability, T/C [13] was 37.7%. The viability, T/C [14] was 32.1%, the viability, T/C [15] was 26.7% and the viability, T/C [16] was 33.4%. It also gave a viability, T/C (second compound 0.316 µM, first compound 0.00316 µM) of 62.8%, a viability, T/C (second compound 0.316 µM, first compound 0.01 µM) of 53.6% and a viability, T/C [19] of 29.5%. The viability, T/C [20] was 23.9%, the viability, T/C [21] was 25.7% and the viability, T/C [22] was 32.9%. The viability, T/C (second compound 1 µM, first compound 0.00316 µM) was 50.1%, the viability, T/C (second compound 1 µM, first compound 0.01 µM) was 47.1% and the viability, T/C [25] was 33.5%. For the same compound, the viability, T/C [26] was 27.6%, the viability, T/C [27] was 25.9% and the viability, T/C [28] was 36.8%. It also gave a viability, T/C (second compound 3.16 µM, first compound 0.00316 µM) of 57.6%, a viability, T/C (second compound 3.16 µM, first compound 0.01 µM) of 48.7% and a viability, T/C [31] of 31.9%. It also gave a viability, T/C [32] of 25.4%, a viability, T/C [33] of 28.6% and a viability, T/C [34] of 36.1%. For the same compound, the viability, T/C (second compound 10 µM, first compound 0.00316 µM) was 47.2%, the viability, T/C (second compound 10 µM, first compound 0.01 µM) was 43.3% and the viability, T/C [37] was 35.5%. For the same compound, the viability, T/C [38] was 28%, the viability, T/C [39] was 33.5% and the viability, T/C [40] was 36.1%.
`C#Cc1c(F)ccc2cc(O)cc(-c3ncc4c(N5CC6CCC(C5)N6)nc(OCC56CCCN5CC(F)C6)nc4c3F)c12` (stereo not drawn) was tested, and the viability, T/C (compound 0.0316 µM) was 76.7% and 87.4%, the viability, T/C (compound 0.1 µM) was 73.1% and 85.8% and the viability, T/C (compound 0.316 µM) was 55.9% and 64.3%. The viability, T/C (compound 1 µM) was 51.7% and 67%, the viability, T/C (compound 3.16 µM) was 36.1% and 38.3% and the viability, T/C (compound 10 µM) was 26.8% and 29.4%. The IC50 (curve of compound) was 881 nM and 1900 nM.
`CC(CO)NC(=O)c1cc(-c2ccc(Cl)cc2)nn(-c2cnn(C)c2)c1=O` (stereo not drawn) was tested, and the viability, T/C (compound 0.0316 µM) was 93.7% and 89.7%, the viability, T/C (compound 0.1 µM) was 96.4% and 110% and the viability, T/C (compound 0.316 µM) was 90.4% and 96.5%. The viability, T/C (compound 1 µM) was 106% and 108%, the viability, T/C (compound 3.16 µM) was 96.3% and 107% and the viability, T/C (compound 10 µM) was 78.1% and 83%. The IC50 (curve of compound) was over 10000 nM.
